According to patent US20080058642A1, “METHOD FOR DETECTING CORONARY ENDOTHELIAL DYSFUNCTION AND EARLY ATHEROSCLEROSIS” (BOARD OF REGENTS OF THE UNIVERSITY OF TEXAS SYSTEM, priority 2006, published 2008):

Tests used:
endothelin 1A receptor = target: T1, endothelin 1A receptor (Sus scrofa, UniProt Q29010); conditions: porcine saphenous vein-carotid artery interposition grafts; cited from earlier work
T1 construct: host or cells: in vivo, porcine vein grafts
T1 sequence (Q29010 21-427): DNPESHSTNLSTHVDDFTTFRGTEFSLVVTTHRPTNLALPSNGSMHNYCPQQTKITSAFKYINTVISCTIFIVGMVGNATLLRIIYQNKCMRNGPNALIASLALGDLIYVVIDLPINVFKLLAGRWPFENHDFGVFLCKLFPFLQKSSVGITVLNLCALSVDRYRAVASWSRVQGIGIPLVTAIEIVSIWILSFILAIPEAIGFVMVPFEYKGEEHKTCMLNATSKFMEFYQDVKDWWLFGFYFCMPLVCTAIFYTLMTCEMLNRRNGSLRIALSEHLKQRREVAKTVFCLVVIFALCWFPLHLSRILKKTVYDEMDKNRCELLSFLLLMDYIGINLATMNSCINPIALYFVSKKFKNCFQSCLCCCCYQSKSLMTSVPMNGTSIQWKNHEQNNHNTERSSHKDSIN

[1] = test system: healthy adult hound dogs (left circumflex coronary artery, LCx, territory); assay: Endothelin-induced myocardial perfusion defects by 82Rb PET imaging in dogs; assay type: in vivo, dog; conditions: for severity of perfusion defect after intracoronary infusion: intracoronary into LCx for 10 min, L-NMMA 100-400 μg/kg/min in five dogs vs ET-1; for AD i.c. pre-ET: LCx 82Rb uptake as % of baseline: intracoronary adenosine before ET-1; for AD i.c. post-ET: LCx 82Rb uptake as % of baseline: intracoronary adenosine after ET-1; for AD i.v.: LCx 82Rb uptake as % of baseline: intravenous adenosine 0.142 mg/kg/min after ET-1
Protocol: Experimental Preparation. The experimental protocol was approved by the Animal Welfare Committee of the University of Texas Health Sciences Center at Houston. After an overnight fast, healthy adult hound dogs (n=14) of both sexes, 21-35 kg, were anesthetized with 30 mg/kg pentobarbital sodium (Nembutal) and underwent endotracheal intubation and mechanical ventilation with adequate anesthesia maintained by small supplemental doses during the experiment. Arterial blood gases were maintained within physiological range by adjusting the mechanical ventilator with supplemental oxygen, core body temperature was maintained at 37° C. with a homeothermic blanket, and stable body position was maintained throughout the duration of the imaging protocol by using a specially designed portable cradle for both coronary arteriography and PET imaging without moving the dog strapped to the portable cradle.
Arterial access was obtained via the right femoral artery by standard Seldinger technique with an arterial micropuncture kit (Cook, Bloomington, Ind.) with a 6-F arterial sheath. All animals received 100 IU/kg of initial heparin bolus, with 50 IU/kg every hour for the duration of the experiment. A 6-F standard JL3 VistaBrite coronary guide catheter (Cordis-Cardiology, Miami Lakes, Fla.) was positioned under fluoroscopic guidance into the left main coronary artery ostium.
After a stable position for the guide catheter was obtained, a 0.014-in.-diameter Hi-Torque Whisper guide wire (Guidant, Indianapolis, Ind.) was placed in the left circumflex coronary artery (LCx). Over the coronary wire, a 2.3-F, 150-cm-long, 0.042-in.-minimal diameter Rapidtransit infusion catheter (Cordis-Cardiology) was positioned in the LCx, with the tip in the midsegment of the LCx artery proximal to the takeoff of the first large obtuse marginal branch. The guide wire was removed, the guide catheter was withdrawn into the aortic root, and the small catheter was left in place in the mid-LCx.
Experimental Protocol. Contrast angiograms were obtained to document the LCx as the dominant coronary artery and the small catheter position in the mid-LCx. With contrast solution diluted 50% with normal saline, different injection rates were tested to determine the rate at which back flow occurred into the proximal segment of the coronary artery. […] Dogs were then moved into the PET scanner without changing position on the special cradle, and a repeat subselective angiogram was performed under fluoroscopy on the PET imaging table to ensure that the small intracoronary infusion catheter positioned in the mid-LCx had not changed during transportation. PET imaging was carried out with the University of Texas-designed Posicam BGO multislice tomograph HZL/mPower (Positron, Houston) as previously described (e.g., Halcox et al., Circulation 106:653-658, 2002), with a reconstructed resolution of 10-mm full-width half-maximum. Images were acquired in two-dimensional mode with extended septa to minimize scattered counts with random coincidences corrected from the singles count rate.
On the basis of a 5-min positioning transmission scan, dogs were precisely positioned in the PET scanner and laser guides aligned to external body markers were used to check correct position for every image acquisition. With a rotating rod source containing 4-5 mCi of ^68Ge, transmission images to correct for photon attenuation contained about 70-90 million counts. Emission images obtained after intravenous injection of […]-1,110 MBq (25-30 mCi) of generator-produced rubidium-82 (^82Rb) contained about 20-30 million counts. The protocol used the following imaging sequence as illustrated in FIG. 7.
Step 1. Immediately after completion of a resting perfusion image with intravenous ^82Rb, 3 mg/ml adenosine (Fujisawa Healthcare, Deerfield, Ill.) was infused subselectively into the LCx for 4 min at 2 ml/min. […]

myocardial perfusion = assay: Rest-dipyridamole myocardial perfusion PET with Markovian homogeneity analysis; assay type: in vivo, human
Excerpt: Study Patients. The population for this study consists of 1,034 consecutive subjects undergoing diagnostic, rest-dipyridamole, myocardial perfusion PET at The Weatherhead PET Center For Preventing and Reversing Atherosclerosis of the University of Texas Medical School—Houston. All subjects signed informed consent approved by the Committee for the Protection of Human Subjects of the University of Texas Health Science Center. A complete medical history was obtained on all patients undergoing diagnostic cardiac PET for assessment or follow-up of known CAD, for second opinions on revascularization procedures, for prior positive stress tests, for coronary calcification by CT, for chest pain or other symptoms, for screening, or for risk factors. A history of risk factors was obtained for age, sex, diabetes, hypertension, high cholesterol, family history of vascular disease, excess weight, lack of exercise, and past or present smoking, that were counted as positive even if treated, as with hypertensive or lipid-lowering medications.
PET. Patients were instructed to fast for 4 h and abstain from caffeine, theophylline, and cigarettes for 24 h before study. PET was performed using the University of Texas designed, Positron Posicam Auricle, bismuth germanate, 2-dimensional (2D) multislice tomograph with a reconstructed resolution of 10-mm full width at half maximum. Using a rotating rod source containing 148-185 MBq (4-5 mCi) of ^68Ge, transmission images to correct for photon attenuation contained approximately 40-60 million counts. Emission images obtained after intravenous injection of 925-1,850 MBq (25-50 mCi) of generator-produced ^82Rb contained 20-50 million counts depending on the age of the generator and size of the patient. After resting ^82Rb data acquisition, dipyridamole (0.142 mg/kg/min) was infused for 4 min. At 4 min after completion of the dipyridamole infusion, the same dose of ^82Rb was given intravenously.
Automated Quantitative Analysis of PET Images. […]

[2] = intracoronary ET-1 1.5-3.5 ng/kg/min for 10 min, repeated doses in six dogs

For `Cc1cc(C)nc(O[C@H](C(=O)O)C(C)(c2ccccc2)c2ccccc2)n1` [BSF 302146, [+]-[S]-2-[4,6-dimethyl-pyridimin-2-yloxy]-3,3-diphenyl-butanoic acid], the “inhibition of neointimal and medial thickening” value (endothelin 1A receptor) is given as “potent inhibitor”.

With `CC[C@H](C)[C@H](NC(=O)[C@H](CC(=O)O)NC(=O)[C@H](CC(C)C)NC(=O)[C@H](Cc1cnc[nH]1)NC(=O)[C@@H]1CSSC[C@H](N)C(=O)N[C@@H](CO)C(=O)N[C@H]2CSSC[C@H](NC(=O)[C@H](CCC(=O)O)NC(=O)[C@H](CCCCN)NC(=O)[C@H](CC(=O)O)NC(=O)[C@H](CCSC)NC(=O)[C@H](CC(C)C)NC(=O)[C@H](CO)NC(=O)[C@H](CO)NC2=O)C(=O)N[C@@H](C(C)C)C(=O)N[C@@H](Cc2ccc(O)cc2)C(=O)N[C@@H](Cc2ccccc2)C(=O)N1)C(=O)N[C@H](C(=O)N[C@@H](Cc1c[nH]c2ccccc12)C(=O)O)[C@@H](C)CC` [ET-1, endothelin-1] the “ΔET − Baseline (severity of ET-induced defect)” value (“ΔET − Baseline” below) ([1]; Group 1) was −12.7%, the “ET: LCx 82Rb uptake as % of baseline” value ([1]; Group 1, after intracoronary ET-1, total dose 44.3 ng) was 89.3% and the “ET: LCx 82Rb uptake as % of baseline” value ([1]; Group 1, after intracoronary ET-1, total dose 44.3 ng, listed as ET) was 89.3 ± 7.3%. The “ΔET − Baseline” value ([1]; Group 1, listed as ET) was −12.7 ± 6.7%, the “ΔET − Baseline” value ([1]; Group 2) was −11.1% and the “ET: LCx 82Rb uptake as % of baseline” value ([1]; Group 2, after intracoronary ET-1, total dose 67.5 ng) was 90.2%. The “ET: LCx 82Rb uptake as % of baseline” value ([1]; Group 2, after intracoronary ET-1, total dose 67.5 ng, listed as ET) was 90.2 ± 8.1%, the “ΔET − Baseline” value ([1]; Group 2, listed as ET) was −11.1 ± 11.9% and the “death because of ET-1 administration” value [1, 2] was “no animal died”. For the same compound, the tachyarrhythmia [1, 2] was “No tachyarrhythmia developed”, the “severity of perfusion defect after intracoronary infusion” value [1] was −10.13% and the “duration of perfusion defect after intracoronary ET-1 infusion” value ([1]; pilot dose-finding, three dogs, in several instances) was “up to 5 h”. The “time at which perfusion defect was first observed” value ([1]; pilot dose-finding, end of initial intracoronary ET-1 infusion) was no less than 10 min.

With `CNC(=N)NCCC[C@H](N)C(=O)O` [L-NMMA, N^G-monomethyl-L-arginine] the “severity of perfusion defect after intracoronary infusion” value [1] was −2.48%.

With `Nc1ncnc2c1ncn2[C@@H]1O[C@H](CO)[C@@H](O)[C@H]1O` [adenosine] the “ΔAD i.c − ET (percent change in LCx uptake)” value ([1]; Group 1) was 8.7%, the “ΔAD i.v. − ET (change of defect after intravenous adenosine)” value ([1]; Group 1) was “+4.1%” and the “AD i.c. pre-ET: LCx 82Rb uptake as % of baseline” value (“AD i.c. pre-ET … as % of baseline” for short) ([1]; Group 1 (n = 8, defect improved after i.v. adenosine)) was 102%. For the same compound, the “AD i.c. pre-ET … as % of baseline” value ([1]; Group 1 (n = 8, defect improved after i.v. adenosine), listed as AD) was 102.0 ± 5.5%, the “AD i.c. post-ET: LCx 82Rb uptake as % of baseline” value (“AD i.c. post-ET … as % of baseline” below) ([1]; Group 1) was 98.7% and the “AD i.c. post-ET … as % of baseline” value ([1]; Group 1, listed as AD) was 98.7 ± 5.5%. For the same compound, the “AD i.v.: LCx 82Rb uptake as % of baseline” value ([1]; Group 1) was 93.4%, the “AD i.v.: LCx 82Rb uptake as % of baseline” value ([1]; Group 1, listed as AD) was 93.4 ± 6.0% and the “ΔAD i.c − ET (percent change in LCx uptake)” value ([1]; Group 1, listed as AD) was 8.7 ± 4.3%. For the same compound, the “ΔAD i.v. − ET (change of defect after intravenous adenosine)” value ([1]; Group 1, listed as AD) was 4.1 ± 2.0%, the “ΔAD i.c − ET (percent change in LCx uptake)” value ([1]; Group 2) was 10.5% and the “ΔAD i.v. − ET (change of defect after intravenous adenosine)” value ([1]; Group 2) was −12.5%. The “AD i.c. pre-ET … as % of baseline” value ([1]; Group 2 (n = 15, defect not improved or worse after i.v. adenosine)) was 101.3%, the “AD i.c. pre-ET … as % of baseline” value ([1]; Group 2 (n = 15, defect not improved or worse after i.v. adenosine), listed as AD) was 101.3 ± 5.2% and the “AD i.c. post-ET … as % of baseline” value ([1]; Group 2) was 100.5%. For the same compound, the “AD i.c. post-ET … as % of baseline” value ([1]; Group 2, listed as AD) was 100.5 ± 4.3%, the “AD i.v.: LCx 82Rb uptake as % of baseline” value ([1]; Group 2) was 77.7% and the “AD i.v.: LCx 82Rb uptake as % of baseline” value ([1]; Group 2, listed as AD) was 77.7 ± 14.5%. For the same compound, the “ΔAD i.c − ET (percent change in LCx uptake)” value ([1]; Group 2, listed as AD) was 10.5 ± 8.5%, the “ΔAD i.v. − ET (change of defect after intravenous adenosine)” value ([1]; Group 2, listed as AD) was −12.5 ± 9.2% and the “effect of intracoronary adenosine on ET-1-induced resting perfusion defects” value ([1]; all experiments) was “normalized”. The “effect of intravenous adenosine on vasoconstrictor effect of ET-1” value ([1]; doses comparable to clinical practice, all 23 protocol sequences) was “only partially counteracted”, the “visual change of ET-1-induced perfusion defect after intravenous adenosine” value ([1]; group 1 (n=8)) was “improved” and the “visual change of ET-1-induced perfusion defect after intravenous adenosine” value ([1]; group 2 (n=15)) was “visually not improved or relatively worse”.

For `OCCN(CCO)c1nc(N2CCCCC2)c2nc(N(CCO)CCO)nc(N3CCCCC3)c2n1` [dipyridamole], the “lowest mean average quadrant activity on the dipyridamole scan” value (myocardial perfusion; patient with severe stress-induced perfusion defect) was 63 % of maximum, the “homogeneity index by Markovian analysis after dipyridamole” value (myocardial perfusion; patient with severe stress-induced perfusion defect, 0.34 at rest) was 0.49 and the “homogeneity index by Markovian analysis after dipyridamole” value (myocardial perfusion; young healthy volunteer without risk factors, 0.80 at rest) was 0.83.
